For assay [1], the system named is metrazol-induced convulsions in mice. As to the kind of experiment: Suppression of Metrazol-Induced Convulsions. The assay is classed as in vivo, mouse (male CD1 mice). Conditions: Mus musculus, ip, sc metrazol CD90, block of clonic convulsions, greater than 30 = active dose not determined.
In assay [2] the test system is adult male rat (conflict behavior suppressed by punishment). As to the kind of experiment: Suppression of anxiety in the adult male rat (Conflict, Vogel). It is filed as in vivo. The note with it: ip, minimum effective dose, greater than 10 = active dose not determined, read-out: Conflict MED. From the text: The experiment was run the next day.
Assay [3] deals with benzodiazepine site of the GABA-A receptor. As to the kind of experiment: Benzodiazepine Receptor Binding Assay (inhibition of 3H-flunitrazepam binding). Conditions: ca. 3 nM 3H-flunitrazepam, 10-20 min at 25° C., membranes; over 10,000 = not active.

A word on the ED50: it is the dose at which the effect has come halfway, by size or by number of responders. Higher therefore signals weaker potency. For orientation: IC50 means the point on the concentration scale where inhibition reaches its midpoint.

In assay [1], `O=C1CN2C(=C1C(=O)Nc1ccncc1)Nc1ccccc12` [CP #1, N-(4-Pyridyl)-1,2-dihydro-4H-pyrrolo[1,2-a]benzimidazole-3-carboxamide-2(1H)-one] came in with an ED50 above 10 mg/kg. Moreover, in assay [2], the minimal effective dose was above 10 mg/kg. Besides, the IC50 in assay [3] worked out at 7.22 µM.

For `CN(C)c1ccc(NC(=O)C2=C3Nc4ccccc4N3CC2=O)cc1` [CP #2, N-(4-Dimethylaminophenyl)-1,2-dihydro-2-oxo-4H-pyrrolo[1,2-a]benzimidazole-3-carboxamide], in assay [1], the ED50 is above 30 mg/kg. For the same molecule, the minimal effective dose in assay [2] is above 10 mg/kg. Besides, the IC50 in assay [3] was found to be 1.74 µM.

Take `O=C1CN2C(=C1C(=O)Nc1cc(F)ccc1F)Nc1ccccc12` [CP #3, N-(2,5-Difluorophenyl)-1,2-dihydro-2-oxo-4H-pyrrolo[1,2-a]benzimidazole-3-carboxamide]: the minimal effective dose in assay [2] was above 10 mg/kg. Also, the half-inhibitory concentration (IC50) in assay [3] was above 10 µM.

As for `O=C1CN2C(=C1C(=O)Nc1c(F)cccc1F)Nc1ccccc12` [CP #5, N-(2,6-Difluorophenyl)-1,2-dihydro-2-oxo-4H-pyrrolo[1,2-a]benzimidazole-3-carboxamide], the ED50 in assay [1] came to 6 mg/kg. Besides, in assay [2], the minimal effective dose was below 10 mg/kg. Further, in assay [3], the IC50 is 0.0801 µM.

For the molecule `CN1C2=C(C(=O)Nc3c(F)cccc3F)C(=O)C(C)(C)N2c2ccccc21` [CP #6, N-(2,6-Difluorophenyl)-1,2-dihydro-1,1,4-trimethyl-4H-pyrrolo[1,2-a]benzimidazole-3-carbozamide-2(1H) one], in assay [1], the 50% effective dose (ED50) fell in the range of 1 to 10 mg/kg. Besides, the minimal effective dose in assay [2] is above 10 mg/kg. This molecule showed an IC50 in assay [3] above 10 µM.

Regarding `CCN1C2=C(C(=O)Nc3c(F)cccc3F)C(=O)CN2c2ccccc21` [CP #7, N-(2,6-Difluorophenyl)-1,2-dihydro-4-ethyl-4H-pyrrolo[1,2-a]benzimidazole-3-carboxamide-2(1H)-one], the median effective dose (ED50) in assay [1] is above 10 mg/kg. In addition, the minimal effective dose in assay [2] is above 10 mg/kg. The IC50 in assay [3] was above 10 µM.

With `O=C1CN2C(=C1C(=O)Nc1ccc(F)cc1F)Nc1ccccc12` [CP #8, N-(2,4-Difluorophenyl)-1,2-dihydro-2-oxo-4H-pyrrolo[1,2-a]benzimidazole-3-carboxamide], the minimal effective dose in assay [2] was above 10 mg/kg. For the same molecule, in assay [3], the IC50 is above 10 µM.

The record behind these values is US5521200A, “2-oxo-pyrrolo[1,2-A]benzimidazole-3-carboxyl derivatives useful in treating central nervous system disorders” (priority 1994, dated 1996).
